Measurements published in PubChem BioAssay AID248 (DTP/NCI, 2004).
Several values for one entry are separate records, joined by “and”; a condition that tells them apart may be missing. Equal entries are not always repeated. Toxic doses and inconclusive results are not listed. Rule as the data show it: active = T/C of 150% or more; inactive = T/C below 125%. Peptide text beside a SMILES is read from it. * marks the point of attachment. Bn = c1ccc(C*)cc1; For = O=C*

Tested on: L1210 leukemia ip in BDF1 mice, survival T/C
Experiment: NCI In Vivo Anticancer Drug Screen. Data for tumor model L1210 Leukemia (intraperitoneal) in B6D2F1 (BDF1) mice
Details: endpoint: mean survival time, higher = longer survival
How it was run: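 Antitumor effect is assessed in tumor-bearing animals. Survival in the compound arm is compared with a vehicle-dosed control arm and expressed as their quotient.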

[1] = dose: 50.0 mg/kg/injection, schedule: Q01DX009 (ip), vehicle: saline with Tween-80
[2] = dose: 100.0 mg/kg/injection, schedule: Q01DX001 (ip), vehicle: Klucel (hydroxypropylcellulose) (HPC)
[3] = dose: 100.0 mg/kg/injection, schedule: Q04DX003 (ip), vehicle: Klucel (hydroxypropylcellulose) (HPC)
[4] = dose: 200.0 mg/kg/injection, schedule: Q01DX001 (ip), vehicle: Klucel (hydroxypropylcellulose) (HPC)
[5] = dose: 200.0 mg/kg/injection, schedule: Q04DX003 (ip), vehicle: Klucel (hydroxypropylcellulose) (HPC)
[6] = dose: 400.0 mg/kg/injection, schedule: Q01DX001 (ip), vehicle: Klucel (hydroxypropylcellulose) (HPC)
[7] = dose: 400.0 mg/kg/injection, schedule: Q04DX003 (ip), vehicle: Klucel (hydroxypropylcellulose) (HPC)
[8] = dose: 100.0 mg/kg/injection, schedule: Q01DX009 (ip), vehicle: Klucel (hydroxypropylcellulose) (HPC)
[9] = dose: 200.0 mg/kg/injection, schedule: Q01DX009 (ip), vehicle: Klucel (hydroxypropylcellulose) (HPC)
[10] = dose: 400.0 mg/kg/injection, schedule: Q01DX009 (ip), vehicle: Klucel (hydroxypropylcellulose) (HPC)
[11] = dose: 100.0 mg/kg/injection, schedule: Q01DX009 (ip), vehicle: saline with Tween-80
[12] = dose: 100.0 mg/kg/injection, schedule: Q04DX003 (ip), vehicle: saline with Tween-80
[13] = dose: 200.0 mg/kg/injection, schedule: Q01DX009 (ip), vehicle: saline with Tween-80
[14] = dose: 200.0 mg/kg/injection, schedule: Q04DX003 (ip), vehicle: saline with Tween-80
[15] = dose: 400.0 mg/kg/injection, schedule: Q04DX003 (ip), vehicle: saline with Tween-80
[16] = dose: 75.0 mg/kg/injection, schedule: Q01DX001 (ip), vehicle: saline
[17] = dose: 50.0 mg/kg/injection, schedule: Q01DX009 (ip), vehicle: Klucel (hydroxypropylcellulose) (HPC)
[18] = dose: 100.0 mg/kg/injection, schedule: Q01DX001 (ip), vehicle: saline
[19] = dose: 200.0 mg/kg/injection, schedule: Q01DX001 (ip), vehicle: saline
[20] = dose: 400.0 mg/kg/injection, schedule: Q01DX001 (ip), vehicle: saline
[21] = dose: 100.0 mg/kg/injection, schedule: Q04DX002 (ip), vehicle: Klucel (hydroxypropylcellulose) (HPC)
[22] = dose: 200.0 mg/kg/injection, schedule: Q04DX002 (ip), vehicle: Klucel (hydroxypropylcellulose) (HPC)
[23] = dose: 400.0 mg/kg/injection, schedule: Q04DX002 (ip), vehicle: Klucel (hydroxypropylcellulose) (HPC)

Measured: T/C

O=C(O)C(O)C(O)C(O)CO.[Zn+2] (configuration not stated)
inactive: dose: 6.25 mg/kg/injection, schedule: Q01DX009 (ip), vehicle: saline with Tween-80 95 % of control | dose: 6.25 mg/kg/injection, schedule: Q04DX002 (ip), vehicle: saline with Tween-80 124 % of control | dose: 12.5 mg/kg/injection, schedule: Q01DX009 (ip), vehicle: saline with Tween-80 105 % of control and 100 % of control | dose: 12.5 mg/kg/injection, schedule: Q04DX002 (ip), vehicle: saline with Tween-80 109 % of control | dose: 25.0 mg/kg/injection, schedule: Q01DX009 (ip), vehicle: saline with Tween-80 91 % of control | dose: 25.0 mg/kg/injection, schedule: Q04DX002 (ip), vehicle: saline with Tween-80 95 % of control | [1] 91 % of control

c1ccc(C2=NNC(c3ccccc3)=C(c3ccccc3)C2)cc1
inactive: [2] 89 % of control | [3] 98 % of control | [4] 103 % of control | [5] 100 % of control | [6] 101 % of control | [7] 100 % of control

c1ccc2c(c1)CCc1ccccc1CC2
inactive: [8] 93 % of control | [9] 96 % of control | [10] 90 % of control

O=S(CCO)CCS(=O)CCO (configuration not stated)
inactive: dose: 75.0 mg/kg/injection, schedule: Q01DX009 (ip), vehicle: saline 95 % of control | dose: 100.0 mg/kg/injection, schedule: Q04DX003 (ip), vehicle: saline 106 % of control | dose: 150.0 mg/kg/injection, schedule: Q01DX009 (ip), vehicle: saline 101 % of control | dose: 200.0 mg/kg/injection, schedule: Q04DX003 (ip), vehicle: saline 110 % of control | dose: 300.0 mg/kg/injection, schedule: Q01DX009 (ip), vehicle: saline 97 % of control | dose: 400.0 mg/kg/injection, schedule: Q04DX003 (ip), vehicle: saline 100 % of control

CCOC(=O)c1[nH]c2ccsc2c1CN1CCCCC1
inactive: dose: 50.0 mg/kg/injection, schedule: Q01DX001 (ip), vehicle: Klucel (hydroxypropylcellulose) (HPC) 93 % of control | [2] 101 % of control

O=C(Nc1ccc([N+](=O)[O-])cc1)Nc1ccc([N+](=O)[O-])cc1 (tested in a mixture with another compound)
inactive: [3] 89 % of control | dose: 200.0 mg/kg/injection, schedule: Q01DX009 (ip), vehicle: saline 98 % of control | [5] 100 % of control | dose: 400.0 mg/kg/injection, schedule: Q01DX009 (ip), vehicle: saline 88 % of control | [7] 89 % of control

CCOC(=O)c1cnc(SCCN2C(=O)c3ccccc3C2=O)[nH]c1=O
inactive: dose: 100.0 mg/kg/injection, schedule: Q04DX003 (ip), vehicle: gum acacia 100 % of control | dose: 200.0 mg/kg/injection, schedule: Q04DX003 (ip), vehicle: gum acacia 102 % of control | dose: 400.0 mg/kg/injection, schedule: Q04DX003 (ip), vehicle: gum acacia 97 % of control

CCC(CO)Nc1nc2ccc(Cl)cc2c2ccccc12 (configuration not stated)
inactive: [8] 104 % of control | [3] 102 % of control | [9] 90 % of control | [5] 111 % of control | [10] 103 % of control | [7] 107 % of control

CC(C)CC(NC(=O)C(Cc1ccc(OCc2ccccc2)cc1)NC=O)C(=O)O (configuration not stated) (For-Tyr(Bn)-Leu-OH; configuration not given here)
inactive: [11] 98 % of control | [12] 97 % of control | [13] 98 % of control | [14] 97 % of control | [15] 92 % of control

Oc1ccc(C2C=CCC2)cc1C1C=CCC1 (configuration not stated)
inactive: [8] 105 % of control | [3] 100 % of control | [9] 100 % of control | [5] 96 % of control | [10] 94 % of control | [7] 109 % of control

CC1=C2/C=c3\[nH]/c(c(CCC(=O)NCCN)c3C)=C\c3[nH]c(c(C)c3CCC(=O)NCCN)CC3NC(CC(=N2)C1=NCCN)C(C)=C3NCCN (configuration not stated)
inactive: dose: 37.5 mg/kg/injection, schedule: Q01DX001 (ip), vehicle: saline 97 % of control | [16] 97 % of control and 111 % of control | dose: 150.0 mg/kg/injection, schedule: Q01DX001 (ip), vehicle: saline 106 % of control and 120 % of control | dose: 300.0 mg/kg/injection, schedule: Q01DX001 (ip), vehicle: saline 102 % of control

CCCCCCCCCCCCCCCCSC(=N)N
inactive: dose: 100.0 mg/kg/injection, schedule: Q04DX003 (ip), vehicle: carboxymethylcellulose (CMC) 91 % of control | dose: 200.0 mg/kg/injection, schedule: Q04DX003 (ip), vehicle: carboxymethylcellulose (CMC) 93 % of control

Cc1cccc(C)c1NC(=O)Nc1ccc2c(c1)OCO2
inactive: [3] 93 % of control | [5] 92 % of control | [7] 88 % of control

N#CCC(=O)c1ccccc1
inactive: dose: 12.5 mg/kg/injection, schedule: Q01DX009 (ip), vehicle: Klucel (hydroxypropylcellulose) (HPC) 113 % of control | dose: 18.75 mg/kg/injection, schedule: Q04DX003 (ip), vehicle: gum acacia 106 % of control | dose: 25.0 mg/kg/injection, schedule: Q01DX009 (ip), vehicle: Klucel (hydroxypropylcellulose) (HPC) 102 % of control | dose: 37.5 mg/kg/injection, schedule: Q04DX003 (ip), vehicle: gum acacia 108 % of control | [17] 104 % of control

c1ccc(N2CCN(c3ccccn3)CC2)nc1
inactive: [1] 92 % of control | [11] 99 % of control | [13] 89 % of control

Nc1nc(Cl)nc(C(Cl)(Cl)Cl)c1Cl (tested in a mixture with another compound)
inactive: [17] 94 % of control | [8] 87 % of control | [9] 97 % of control

CC(C)(C)C(=O)CC(=O)C(C)(C)C.CC(C)(C)C(=O)CC(=O)C(C)(C)C.CC(C)(C)C(=O)CC(=O)C(C)(C)C.[Al]
inactive: [8] 91 % of control | [3] 91 % of control | [9] 94 % of control | [5] 94 % of control | [10] 97 % of control | [7] 95 % of control

CC(CO)(NC(=O)OCc1ccccc1)C(=O)O (configuration not stated)
inactive: dose: 100.0 mg/kg/injection, schedule: Q01DX009 (ip), vehicle: acetone 94 % of control | dose: 200.0 mg/kg/injection, schedule: Q01DX009 (ip), vehicle: acetone 92 % of control | dose: 400.0 mg/kg/injection, schedule: Q01DX009 (ip), vehicle: acetone 92 % of control

NC(CCCCN=Cc1ccccc1O)C(=O)O (configuration not stated)
inactive: [18] 95 % of control | [19] 92 % of control | [20] 91 % of control

O=C(O)CCC(NC(=O)c1ccccc1C(=O)O)C(=O)O (configuration not stated)
inactive: dose: 100.0 mg/kg/injection, schedule: Q01DX001 (ip), vehicle: carboxymethylcellulose (CMC) 94 % of control | dose: 200.0 mg/kg/injection, schedule: Q01DX001 (ip), vehicle: carboxymethylcellulose (CMC) 94 % of control | dose: 400.0 mg/kg/injection, schedule: Q01DX001 (ip), vehicle: carboxymethylcellulose (CMC) 90 % of control

CC1(C)OC(=O)C(C#N)C1c1ccccc1 (configuration not stated)
inactive: [18] 93 % of control | [19] 91 % of control | [20] 96 % of control

C[Si](C)(C)c1c(F)c(F)cc(F)c1F
inactive: [8] 98 % of control | [3] 98 % of control | [9] 112 % of control | [5] 95 % of control | [10] 94 % of control | [7] 97 % of control

Nc1nc(-c2cc(Br)ccc2N=NN2CCCCC2)nc2ccc(Br)cc12
inactive: [21] 86 % of control | [22] 89 % of control | [23] 99 % of control

CN(C)C(=O)N1CN(c2ccccc2)C2(CCN(CC3COc4ccccc4O3)CC2)C1=O (configuration not stated)
inactive: [2] 101 % of control | [4] 97 % of control | [6] 106 % of control

CCC(C)(O)C#Cc1ccc(C)nc1 (configuration not stated)
inactive: [12] 97 % of control | [14] 96 % of control | [15] 94 % of control

COc1ccc(/C(C)=N\NC(N)=O)cc1
inactive: dose: 50.0 mg/kg/injection, schedule: Q04DX002 (ip), vehicle: Klucel (hydroxypropylcellulose) (HPC) 111 % of control | [21] 105 % of control | [22] 94 % of control | [23] 99 % of control

C[n+]1ccc(/C=C\c2ccc3c(c2)OCO3)cc1
inactive: [16] 100 % of control
